Test results: patent publication US10111890B2, “9-aminomethyl minocycline compounds and uses thereof” (Paratek Pharmaceuticals, Inc., priority 2016, dated 2018)

Key:
[1] = system: ABSSSI known or suspected to be due to Gram-positive pathogens; experiment: Phase 3 oral omadacycline vs oral linezolid in ABSSSI: Early Clinical Response 48-72 hours after first dose; format: in vivo, human; settings: omadacycline minus linezolid, mITT
[2] = Phase 3 oral omadacycline vs oral linezolid in ABSSSI: safety (adverse events, TEAEs, vital signs, ECG, laboratory); format: in vivo; settings: safety population
From the text: An Adverse Event (AE) is any untoward, undesired, or unplanned event in the form of signs, symptoms, disease, or laboratory or physiologic observations occurring in a person given a test article or in a clinical study. […] An AE includes, but is not limited to, the following: any clinically significant worsening of a preexisting condition; an AE occurring from overdose of a test article, whether accidental or intentional; overdose is a dose greater than that specified in the protocol; an AE occurring from abuse (e.g., use for nonclinical reasons) of a test article; and an AE that has been associated with the discontinuation of the use of a test article.
The severity (or intensity) of an AE was classified using the following criteria:
Concerning relatedness, causality (i.e., whether there was a reasonable possibility that test article caused the event) for all AEs and SAEs was assessed.
Safety variables include the incidence rate of AEs, change in vital signs, ECG parameters and laboratory test results obtained during the course of the study. For safety analyses, subjects were analyzed according to the treatment actually received.
Summary tables were provided for all treatment-emergent adverse events (TEAEs). A TEAE is defined as an AE with a start date and time on or after the first dose of test article. […] Additional tabulations provide summaries by SOC and PT of subjects experiencing SAEs, severe TEAEs, TEAEs judged to be related to test article, TEAEs leading to discontinuation of test article, and TEAEs of special interest.
The following variables were analyzed descriptively: Vital signs (systolic and diastolic BP, pulse rate, body temperature, respiratory rate), including change from Screening by visit; Clinically notable vital signs (meeting predefined criteria as specified in the SAP) by visit. Subjects with notable vital signs data were listed.
ECG data (RR interval, PR interval, QRS interval, QTc, QTc Bazett's Correction Formula [QTcB], and QTc Fridericia's Correction Formula [QTcF]) was summarized descriptively at each scheduled evaluation, and for the overall worst post-Screening value. Changes from Screening at each visit that a 12-lead ECG was obtained was also provided. An outlier analysis was conducted based on the worst post-Screening value.
The following variables were analyzed descriptively: Laboratory variables by visit; Change from Screening of laboratory variables by visit; and Clinically notable laboratory values (meeting predefined criteria specified in the SAP) by visit.

Compound: CN(C)c1cc(CNCC(C)(C)C)c(O)c2c1C[C@H]1C[C@H]3[C@H](N(C)C)C(O)=C(C(N)=O)C(=O)[C@@]3(O)C(O)=C1C2=O [Omadacycline, 9-[(2,2-dimethyl-propylamino)-methyl]-minocycline]
- Difference (95% CI) in Early Clinical Success rate ([1]; Major Abscess, actual type): 5.0 (−5.4, 16.2)
- Difference (95% CI) in Early Clinical Success rate ([1]; Major Abscess, as randomized): 5.0 (−5.4, 16.2)
- Difference (95% CI) in Early Clinical Success rate ([1]; Wound Infection, actual type): 6.3 (−0.3, 13.1)
- Difference (95% CI) in Early Clinical Success rate ([1]; Wound Infection, as randomized): 6.1 (−0.6, 12.8)
- Subjects who died [2]: 0 n (%)
- Subjects with at Least One Adverse Events (AE) [2]: 201 (54.6) n (%)
- Subjects with at Least One Drug-Related Serious TEAE [2]: 0 n (%)
- Subjects with at Least One Drug-Related TEAE [2]: 139 (37.8) n (%)
- Subjects with at Least One Serious TEAE [2]: 5 (1.4) n (%)
- Subjects with at Least One Serious TEAE leading to Death [2]: 0 n (%)
- Subjects with at Least One Serious TEAEs leading to premature discontinuation of test article [2]: 3 (0.8) n (%)
- Subjects with at Least One Severe TEAE [2]: 6 (1.6) n (%)
- Subjects with at Least One TEAE Leading to Study Drug Discontinuation [2]: 6 (1.6) n (%)
- Subjects with at Least One TEAE leading to dose interruption [2]: 0 n (%)
- Subjects with at Least One TEAE leading to premature discontinuation of study [2]: 3 (0.8) n (%)
- Subjects with at Least One TEAE leading to premature discontinuation of test article [2]: 6 (1.6) n (%)
- TEAE leading to study drug discontinuation: Cellulitis [2]: 1 (0.3) n (%)
- TEAE leading to study drug discontinuation: Gastrointestinal Disorders (SOC) [2]: 1 (0.3) n (%)
- TEAE leading to study drug discontinuation: Haematemesis [2]: 1 (0.3) n (%)
- TEAE leading to study drug discontinuation: Infections And Infestations (SOC) [2]: 4 (1.1) n (%)
- TEAE leading to study drug discontinuation: Nausea [2]: 1 (0.3) n (%)
- TEAE leading to study drug discontinuation: Pregnancy [2]: 1 (0.3) n (%)
- TEAE leading to study drug discontinuation: Pregnancy, Puerperium And Perinatal Conditions (SOC) [2]: 1 (0.3) n (%)
- TEAE leading to study drug discontinuation: Staphylococcal Bacteraemia [2]: 1 (0.3) n (%)
- TEAE leading to study drug discontinuation: Subcutaneous Abscess [2]: 1 (0.3) n (%)
- TEAE leading to study drug discontinuation: Vomiting [2]: 1 (0.3) n (%)
- TEAE leading to study drug discontinuation: Wound Infection [2]: 1 (0.3) n (%)
- TEAE: Alanine Aminotransferase Increased [2]: 19 (5.2) n (%)
- TEAE: Aspartate Aminotransferase Increased [2]: 17 (4.6) n (%)
- TEAE: Cellulitis [2]: 12 (3.3) n (%)
- TEAE: Headache [2]: 13 (3.5) n (%)
- TEAE: Wound Infection [2]: 22 (6.0) n (%)
- Total Number of AEs [2]: 468
- Total Number of TEAEs [2]: 448
- Subjects with at Least One TEAE ([2]; AE overview): 197 (53.5) n (%)
- TEAE: Abdominal Pain Upper ([2]; all severities): 10 (2.7) n (%)
- TEAE: Diarrhea ([2]; all severities): 15 (4.1) n (%)
- TEAE: Nausea ([2]; all severities): 111 (30.2) n (%)
- TEAE: Vomiting ([2]; all severities): 62 (16.8) n (%)
- Subjects with at Least One TEAE, Mild ([2]; highest severity Mild): 120 (32.6) n (%)
- TEAE: Abdominal Pain Upper, Mild ([2]; highest severity Mild): 9 (2.4) n (%)
- TEAE: Abdominal Pain, Mild ([2]; highest severity Mild): 3 (0.8) n (%)
- TEAE: Diarrhea, Mild ([2]; highest severity Mild): 13 (3.5) n (%)
- TEAE: Gastrointestinal Disorders (SOC), Mild ([2]; highest severity Mild): 105 (28.5) n (%)
- TEAE: Nausea, Mild ([2]; highest severity Mild): 83 (22.6) n (%)
- TEAE: Vomiting, Mild ([2]; highest severity Mild): 44 (12.0) n (%)
- Subjects with at Least One TEAE, Moderate ([2]; highest severity Moderate): 71 (19.3) n (%)
- TEAE: Abdominal Pain Upper, Moderate ([2]; highest severity Moderate): 1 (0.3) n (%)
- TEAE: Abdominal Pain, Moderate ([2]; highest severity Moderate): 3 (0.8) n (%)
- TEAE: Diarrhea, Moderate ([2]; highest severity Moderate): 2 (0.5) n (%)
- TEAE: Gastrointestinal Disorders (SOC), Moderate ([2]; highest severity Moderate): 39 (10.6) n (%)
- TEAE: Nausea, Moderate ([2]; highest severity Moderate): 28 (7.6) n (%)
- TEAE: Vomiting, Moderate ([2]; highest severity Moderate): 18 (4.9) n (%)
- Subjects with at Least One TEAE, Severe ([2]; highest severity Severe): 6 (1.6) n (%)
- TEAE: Abdominal Pain Upper, Severe ([2]; highest severity Severe): 0 n (%)
- TEAE: Abdominal Pain, Severe ([2]; highest severity Severe): 0 n (%)
- TEAE: Diarrhea, Severe ([2]; highest severity Severe): 0 n (%)
- TEAE: Gastrointestinal Disorders (SOC), Severe ([2]; highest severity Severe): 0 n (%)
- TEAE: Nausea, Severe ([2]; highest severity Severe): 0 n (%)
- TEAE: Vomiting, Severe ([2]; highest severity Severe): 0 n (%)
- Subjects with at Least One TEAE ([2]; most frequent (≥2%) TEAEs table): 197 (53.5) n (%)
